Consider 4 compounds from ChEMBL document CHEMBL5131517 (ACS Med Chem Lett, 2022).

Test [1] addresses Histamine H2 receptor (Homo sapiens) (UniProt P25021). As to the kind of experiment: Inhibition of H2 receptor (unknown origin). Conditions: concentration not given here.
In test [2] the target is 5-hydroxytryptamine receptor 5A (Homo sapiens, UniProt P47898). As to the kind of experiment: Binding affinity to 5HT5A receptor (unknown origin) assessed as inhibition constant.
In test [3] the target is T1, 5-hydroxytryptamine receptor 2B (Homo sapiens, UniProt P41595). As to the kind of experiment: Agonist activity at human 5HT2B receptor stably expressed in Flp-In-T-REx-293 cells assessed as maximal Gq-mediated calcium flux by Fluo-4 direct dye based FLIPR Tetra assay relative to control. The class given is functional, cell-based. Conditions: filed as agonist.
T1 sequence (P41595 whole entry): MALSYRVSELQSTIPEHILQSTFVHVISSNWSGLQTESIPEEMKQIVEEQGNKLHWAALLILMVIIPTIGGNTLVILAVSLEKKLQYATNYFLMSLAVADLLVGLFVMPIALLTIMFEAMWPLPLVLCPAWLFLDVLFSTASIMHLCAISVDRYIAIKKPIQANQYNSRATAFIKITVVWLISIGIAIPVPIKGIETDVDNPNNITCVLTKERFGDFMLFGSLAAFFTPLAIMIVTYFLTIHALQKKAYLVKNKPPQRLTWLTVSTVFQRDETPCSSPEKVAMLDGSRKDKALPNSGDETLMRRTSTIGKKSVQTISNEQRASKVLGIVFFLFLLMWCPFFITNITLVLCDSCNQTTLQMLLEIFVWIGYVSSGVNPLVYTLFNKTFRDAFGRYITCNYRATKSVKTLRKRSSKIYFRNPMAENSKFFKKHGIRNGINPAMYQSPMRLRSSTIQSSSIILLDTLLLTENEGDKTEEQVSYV
In test [4] the target is Sodium-dependent dopamine transporter (Homo sapiens) (UniProt Q01959). As to the kind of experiment: Inhibition of DAT receptor (unknown origin). The following applies: concentration not given here.
Chain of Sodium-dependent dopamine transporter (Homo sapiens) (Q01959 whole entry): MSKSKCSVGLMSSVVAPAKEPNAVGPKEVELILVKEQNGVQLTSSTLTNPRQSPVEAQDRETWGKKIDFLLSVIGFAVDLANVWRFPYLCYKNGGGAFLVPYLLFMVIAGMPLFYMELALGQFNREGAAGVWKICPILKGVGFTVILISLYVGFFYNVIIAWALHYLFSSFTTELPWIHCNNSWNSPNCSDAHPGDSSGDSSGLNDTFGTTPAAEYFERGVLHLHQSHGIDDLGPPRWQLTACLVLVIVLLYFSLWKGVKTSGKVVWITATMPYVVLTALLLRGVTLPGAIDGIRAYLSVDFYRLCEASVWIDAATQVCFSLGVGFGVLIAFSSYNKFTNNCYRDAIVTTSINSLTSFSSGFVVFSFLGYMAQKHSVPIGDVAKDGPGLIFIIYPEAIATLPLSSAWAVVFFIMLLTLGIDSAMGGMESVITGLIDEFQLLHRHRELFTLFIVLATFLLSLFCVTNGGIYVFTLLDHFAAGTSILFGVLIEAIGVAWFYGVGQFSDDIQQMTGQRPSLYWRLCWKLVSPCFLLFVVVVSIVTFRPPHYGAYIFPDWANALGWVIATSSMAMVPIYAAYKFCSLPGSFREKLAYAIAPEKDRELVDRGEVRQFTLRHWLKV
Test [5] has as its target T2, 5-hydroxytryptamine receptor 2C (Homo sapiens, UniProt P28335).
T2 sequence (P28335 whole entry): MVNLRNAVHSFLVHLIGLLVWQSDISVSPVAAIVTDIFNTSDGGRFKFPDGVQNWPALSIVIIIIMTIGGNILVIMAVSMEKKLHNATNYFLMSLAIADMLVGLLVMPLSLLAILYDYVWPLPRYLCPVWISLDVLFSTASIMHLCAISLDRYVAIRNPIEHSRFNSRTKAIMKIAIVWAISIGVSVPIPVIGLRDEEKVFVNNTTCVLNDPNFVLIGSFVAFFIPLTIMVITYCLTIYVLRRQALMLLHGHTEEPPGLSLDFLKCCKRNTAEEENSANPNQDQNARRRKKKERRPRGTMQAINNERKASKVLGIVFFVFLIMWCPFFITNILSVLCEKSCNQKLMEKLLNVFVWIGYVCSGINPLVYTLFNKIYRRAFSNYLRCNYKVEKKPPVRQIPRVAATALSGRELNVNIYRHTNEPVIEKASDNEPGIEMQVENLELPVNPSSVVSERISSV
As to the kind of experiment: Agonist activity at human 5HT2C receptor stably expressed in Flp-In-T-REx-293 cells assessed as increase in Gq-mediated calcium flux by Fluo-4 direct dye based FLIPR Tetra assay. The class given is functional, cell-based. The following applies: read-out: EC50.

Test [6] addresses T3, Alpha-1B adrenergic receptor (Homo sapiens) (UniProt P35368).
T3 sequence (whole entry): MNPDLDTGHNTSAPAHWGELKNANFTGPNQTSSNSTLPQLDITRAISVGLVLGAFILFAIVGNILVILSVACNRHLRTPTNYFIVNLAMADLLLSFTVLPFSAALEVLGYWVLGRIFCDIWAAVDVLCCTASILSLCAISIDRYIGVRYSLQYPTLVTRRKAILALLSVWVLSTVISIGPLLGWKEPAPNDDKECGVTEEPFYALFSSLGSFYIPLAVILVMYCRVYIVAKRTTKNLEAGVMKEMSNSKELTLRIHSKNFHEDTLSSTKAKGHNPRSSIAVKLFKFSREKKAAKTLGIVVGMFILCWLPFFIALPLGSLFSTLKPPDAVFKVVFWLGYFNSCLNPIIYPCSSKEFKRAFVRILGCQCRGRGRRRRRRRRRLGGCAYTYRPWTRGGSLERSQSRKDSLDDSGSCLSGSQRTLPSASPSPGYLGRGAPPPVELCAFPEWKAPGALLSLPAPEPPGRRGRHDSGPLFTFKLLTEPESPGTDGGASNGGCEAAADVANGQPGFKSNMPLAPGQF
As to the kind of experiment: Inhibition of alpha1B receptor (unknown origin). The following applies: concentration not given here.

Test [7] addresses T2, 5-hydroxytryptamine receptor 2C. The experiment in a line: Binding affinity to 5HT2C receptor (unknown origin) assessed as inhibition constant.
In test [8] the target is 5-hydroxytryptamine receptor 7 (Homo sapiens, UniProt P34969). The experiment in a line: Binding affinity to 5HT7 receptor (unknown origin) assessed as inhibition constant.
Chain of 5-hydroxytryptamine receptor 7 (P34969 whole entry): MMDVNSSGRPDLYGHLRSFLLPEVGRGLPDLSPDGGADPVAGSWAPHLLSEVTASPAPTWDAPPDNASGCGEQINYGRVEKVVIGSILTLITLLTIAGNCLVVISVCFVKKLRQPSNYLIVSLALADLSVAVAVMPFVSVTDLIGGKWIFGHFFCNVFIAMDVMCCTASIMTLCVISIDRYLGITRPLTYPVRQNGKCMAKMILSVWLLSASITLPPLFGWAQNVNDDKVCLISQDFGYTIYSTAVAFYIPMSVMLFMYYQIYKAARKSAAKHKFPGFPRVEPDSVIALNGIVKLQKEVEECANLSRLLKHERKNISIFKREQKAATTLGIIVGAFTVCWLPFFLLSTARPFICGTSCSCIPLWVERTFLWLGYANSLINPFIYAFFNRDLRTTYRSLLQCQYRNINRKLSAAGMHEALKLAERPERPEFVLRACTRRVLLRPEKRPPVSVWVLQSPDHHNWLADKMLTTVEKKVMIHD
The target of test [9] is T1, 5-hydroxytryptamine receptor 2B. As to the kind of experiment: Binding affinity to 5HT2B receptor (unknown origin) assessed as inhibition constant.
Test [10] concerns the target Histamine H1 receptor (Homo sapiens) (UniProt P35367). The experiment in a line: Inhibition of H1 receptor (unknown origin). The following applies: concentration not given here.
Test [11] deals with Translocator protein (Homo sapiens) (UniProt P30536). As to the kind of experiment: Inhibition of peripheral benzodiazepine receptor (unknown origin). The following applies: concentration not given here.
Chain of Translocator protein (Homo sapiens) (P30536 whole entry): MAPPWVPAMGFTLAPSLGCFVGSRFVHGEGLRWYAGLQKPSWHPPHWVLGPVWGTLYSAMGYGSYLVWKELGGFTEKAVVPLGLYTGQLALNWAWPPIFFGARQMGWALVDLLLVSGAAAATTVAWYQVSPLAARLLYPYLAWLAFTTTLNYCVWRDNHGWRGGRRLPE
Test [12] has as its target T4, Alpha-1A adrenergic receptor (Homo sapiens) (UniProt P35348).
T4 sequence (whole entry): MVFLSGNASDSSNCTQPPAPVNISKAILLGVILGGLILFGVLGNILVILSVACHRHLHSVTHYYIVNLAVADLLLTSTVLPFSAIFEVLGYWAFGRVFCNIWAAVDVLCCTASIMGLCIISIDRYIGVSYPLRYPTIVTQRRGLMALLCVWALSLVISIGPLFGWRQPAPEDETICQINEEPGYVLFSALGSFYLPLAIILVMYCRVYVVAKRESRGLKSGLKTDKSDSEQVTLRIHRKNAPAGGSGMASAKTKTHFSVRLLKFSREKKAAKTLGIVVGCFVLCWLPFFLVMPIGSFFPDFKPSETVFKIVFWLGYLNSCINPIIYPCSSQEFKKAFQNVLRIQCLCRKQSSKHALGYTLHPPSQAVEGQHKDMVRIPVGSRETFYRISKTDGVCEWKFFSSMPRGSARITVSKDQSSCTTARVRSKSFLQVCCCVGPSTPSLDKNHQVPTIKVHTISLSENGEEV
As to the kind of experiment: Inhibition of alpha1A receptor (unknown origin). The following applies: concentration not given here.

Test [13] addresses Mu-type opioid receptor (Homo sapiens) (UniProt P35372). The experiment in a line: Inhibition of MOR receptor (unknown origin). Conditions: concentration not given here.
In test [14] the target is D(2) dopamine receptor (Homo sapiens) (UniProt P14416). The experiment in a line: Inhibition of D2 receptor (unknown origin). The following applies: concentration not given here.
Chain of D(2) dopamine receptor (Homo sapiens) (P14416 whole entry): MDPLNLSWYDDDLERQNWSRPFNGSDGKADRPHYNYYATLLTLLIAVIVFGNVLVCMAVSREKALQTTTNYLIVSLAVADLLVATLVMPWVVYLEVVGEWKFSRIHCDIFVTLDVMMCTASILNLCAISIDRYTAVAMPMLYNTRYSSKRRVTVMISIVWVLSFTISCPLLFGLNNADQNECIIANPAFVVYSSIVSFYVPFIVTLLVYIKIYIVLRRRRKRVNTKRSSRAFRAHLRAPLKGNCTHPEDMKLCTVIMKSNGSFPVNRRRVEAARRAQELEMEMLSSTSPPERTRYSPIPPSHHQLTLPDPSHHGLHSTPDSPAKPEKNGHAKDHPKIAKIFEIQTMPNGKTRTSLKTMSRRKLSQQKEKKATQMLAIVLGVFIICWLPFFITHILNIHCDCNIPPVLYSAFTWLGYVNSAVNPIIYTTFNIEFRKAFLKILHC
The target in test [15] is T5, 5-hydroxytryptamine receptor 2C (Homo sapiens) (UniProt P28335).
T5 sequence (whole entry): T2 sequence (P28335 whole entry)
The experiment in a line: Agonist activity at human 5HT2C receptor stably expressed in Flp-In-T-REx-293 cells assessed as maximal Gq-mediated calcium flux by Fluo-4 direct dye based FLIPR Tetra assay relative to control. The class given is functional, cell-based. The following applies: filed as agonist.

Test [16] addresses 5-hydroxytryptamine receptor 1E (Homo sapiens, UniProt P28566). The experiment in a line: Binding affinity to 5HT1E receptor (unknown origin) assessed as inhibition constant.
Test [17] concerns the target T6, Muscarinic acetylcholine receptor M2 (Homo sapiens) (UniProt P08172).
T6 sequence (whole entry): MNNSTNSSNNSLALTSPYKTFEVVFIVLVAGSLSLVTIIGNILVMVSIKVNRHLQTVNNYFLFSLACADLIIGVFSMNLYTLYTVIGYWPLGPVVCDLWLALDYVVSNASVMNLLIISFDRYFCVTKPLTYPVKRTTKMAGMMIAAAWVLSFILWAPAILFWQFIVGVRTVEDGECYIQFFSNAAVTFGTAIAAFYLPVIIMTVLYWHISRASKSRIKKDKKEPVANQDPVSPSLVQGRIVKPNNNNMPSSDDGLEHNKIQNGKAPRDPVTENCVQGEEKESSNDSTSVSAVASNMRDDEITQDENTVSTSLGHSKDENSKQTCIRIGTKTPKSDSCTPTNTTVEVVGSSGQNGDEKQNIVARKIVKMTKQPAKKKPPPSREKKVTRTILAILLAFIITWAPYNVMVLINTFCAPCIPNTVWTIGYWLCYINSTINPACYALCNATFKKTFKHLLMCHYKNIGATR
As to the kind of experiment: Inhibition of M2 receptor (unknown origin). The following applies: concentration not given here.

Test [18] has as its target Sigma non-opioid intracellular receptor 1 (Homo sapiens, UniProt Q99720). As to the kind of experiment: Binding affinity to sigma 1 receptor (unknown origin) assessed as inhibition constant.

Chain of Histamine H2 receptor (Homo sapiens) (P25021 whole entry): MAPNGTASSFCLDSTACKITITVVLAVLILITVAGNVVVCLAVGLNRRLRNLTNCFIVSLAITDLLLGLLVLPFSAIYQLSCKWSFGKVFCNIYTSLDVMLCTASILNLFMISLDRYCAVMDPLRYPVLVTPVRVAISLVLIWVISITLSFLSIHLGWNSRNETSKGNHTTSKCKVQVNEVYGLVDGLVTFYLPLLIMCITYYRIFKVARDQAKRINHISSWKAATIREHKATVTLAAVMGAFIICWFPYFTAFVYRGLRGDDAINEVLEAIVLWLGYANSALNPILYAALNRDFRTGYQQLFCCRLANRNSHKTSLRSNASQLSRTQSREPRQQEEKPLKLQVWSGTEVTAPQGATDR
Chain of 5-hydroxytryptamine receptor 5A (P47898 whole entry): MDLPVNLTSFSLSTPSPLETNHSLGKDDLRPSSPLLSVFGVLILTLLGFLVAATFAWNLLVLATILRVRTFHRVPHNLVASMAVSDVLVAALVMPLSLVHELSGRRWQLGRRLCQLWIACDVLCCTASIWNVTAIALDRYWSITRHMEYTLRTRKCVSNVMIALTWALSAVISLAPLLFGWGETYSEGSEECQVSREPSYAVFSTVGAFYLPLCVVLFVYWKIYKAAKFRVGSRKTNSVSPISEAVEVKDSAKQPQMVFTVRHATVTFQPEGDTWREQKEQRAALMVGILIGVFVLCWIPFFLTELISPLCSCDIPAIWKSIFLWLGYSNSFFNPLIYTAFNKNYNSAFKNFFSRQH
Chain of Sigma non-opioid intracellular receptor 1 (Q99720 whole entry): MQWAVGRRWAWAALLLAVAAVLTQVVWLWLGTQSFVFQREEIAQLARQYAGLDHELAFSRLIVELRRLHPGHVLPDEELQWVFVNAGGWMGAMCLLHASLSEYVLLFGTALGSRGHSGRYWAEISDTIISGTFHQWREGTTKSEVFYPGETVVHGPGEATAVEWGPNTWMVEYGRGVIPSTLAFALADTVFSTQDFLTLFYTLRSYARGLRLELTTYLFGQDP
Chain of Histamine H1 receptor (Homo sapiens) (P35367 whole entry): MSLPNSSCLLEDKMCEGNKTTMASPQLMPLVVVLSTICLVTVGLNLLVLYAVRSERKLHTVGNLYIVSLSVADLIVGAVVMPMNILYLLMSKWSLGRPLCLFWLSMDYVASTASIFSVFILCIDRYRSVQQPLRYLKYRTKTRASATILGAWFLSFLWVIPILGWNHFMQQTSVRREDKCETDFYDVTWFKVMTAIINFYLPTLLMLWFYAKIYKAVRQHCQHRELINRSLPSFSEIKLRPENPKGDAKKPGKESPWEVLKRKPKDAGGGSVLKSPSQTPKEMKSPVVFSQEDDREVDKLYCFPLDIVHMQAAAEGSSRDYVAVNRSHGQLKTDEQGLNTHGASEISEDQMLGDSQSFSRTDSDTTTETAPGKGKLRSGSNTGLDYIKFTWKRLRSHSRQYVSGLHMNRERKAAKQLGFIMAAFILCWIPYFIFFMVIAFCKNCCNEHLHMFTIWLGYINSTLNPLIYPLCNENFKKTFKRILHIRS
Chain of Mu-type opioid receptor (Homo sapiens) (P35372 whole entry): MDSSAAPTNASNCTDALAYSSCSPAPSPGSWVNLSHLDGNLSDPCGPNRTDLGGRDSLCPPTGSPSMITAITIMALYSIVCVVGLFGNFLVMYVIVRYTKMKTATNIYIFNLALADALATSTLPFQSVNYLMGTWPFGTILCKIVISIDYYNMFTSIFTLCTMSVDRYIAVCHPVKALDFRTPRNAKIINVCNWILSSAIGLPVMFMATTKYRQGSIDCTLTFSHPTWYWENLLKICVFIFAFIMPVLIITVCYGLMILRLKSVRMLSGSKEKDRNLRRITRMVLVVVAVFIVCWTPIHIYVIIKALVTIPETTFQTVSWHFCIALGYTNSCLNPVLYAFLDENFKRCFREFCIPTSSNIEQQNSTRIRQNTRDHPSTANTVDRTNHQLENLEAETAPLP
Chain of 5-hydroxytryptamine receptor 1E (P28566 whole entry): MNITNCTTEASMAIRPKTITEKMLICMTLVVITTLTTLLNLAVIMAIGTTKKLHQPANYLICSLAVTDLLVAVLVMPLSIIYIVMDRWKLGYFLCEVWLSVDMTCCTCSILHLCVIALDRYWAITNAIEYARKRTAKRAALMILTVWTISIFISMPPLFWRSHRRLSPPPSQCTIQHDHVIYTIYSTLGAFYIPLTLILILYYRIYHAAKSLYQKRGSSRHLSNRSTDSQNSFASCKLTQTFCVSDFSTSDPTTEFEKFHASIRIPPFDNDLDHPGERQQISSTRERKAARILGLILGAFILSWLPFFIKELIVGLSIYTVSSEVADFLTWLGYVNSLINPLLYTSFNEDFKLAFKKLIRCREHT

Regarding `COc1ccc(C2NCCc3c2[nH]c2ccc(F)cc32)c(O)c1` (stereo not given), the inhibition in [1], in [4], in test [6], in test [10], in [11] and in [12] was below 50% each time. The inhibition in test [13], in test [14] and in test [17] was below 50% throughout. Further, the Ki in [2] was determined as 229 nM; in [7] it was 49.8 nM; in test [8], 25.4 nM; in test [9], 4.42 nM; in test [16] it was 1410 nM. The Emax in test [3] came to 102%; in [15], 105%. In [5], the EC50 came out at 1.02 nM.
Regarding `COc1cc(OC)c(C2NCCc3c2[nH]c2ccc(Cl)cc32)cc1OC` (stereo not given), the inhibition in [1], in test [4], in test [6], in [10], in test [11] and in test [12] was below 50% in each case. Also, the inhibition in test [13], in test [14] and in test [17] was below 50% each time. In addition, the Ki is 69.5 nM in [2]; 25.2 nM in test [7]; 2.5 nM in test [8]; 2.93 nM in [9]; 1490 nM in test [18]; 666 nM in [16]. The Emax worked out at 96.7% in test [3] and 97.5% in test [15]. Also, in [5], the 50% effective concentration (EC50) amounted to 0.5 nM.
With `COc1cc(OC)c(C2NCCc3c2[nH]c2ccc(F)cc32)cc1OC` (stereo not given), the inhibition in test [1], in [4], in [6], in [10], in test [11] and in test [12] was below 50% each time. Besides, the inhibition in test [13], in test [14] and in test [17] was below 50% in each case. For the same compound, the Ki in [2] is 2840 nM; in test [7], 671 nM; in test [8] it was 249 nM; in test [9], 55.7 nM; in [18], 760 nM. Also, the results for the Emax in [3] and in test [15] were 106% and 111%, respectively. Further, the EC50 in [5] amounted to 20 nM.
Take `COc1ccc(C2NCCc3c2[nH]c2ccc(Cl)cc32)c(O)c1` (stereo not given): the inhibition in test [1], in [4], in test [6], in [10], in [11] and in test [12] was below 50% throughout. The inhibition in [13], in [14] and in test [17] was below 50% throughout. The Ki in [2] came out at 177 nM; in test [7], 35.9 nM; in test [8], 7.98 nM; in test [9], 4.53 nM; in test [18], 1030 nM; in test [16], 1750 nM. Further, the Emax in test [3] worked out at 99.4%; in [15], 97.2%. For the same compound, in [5], the EC50 worked out at 8.9 nM.
